The text below walks through data of US9932341B2, “Use of pyrazolopyrimidine derivatives for the treatment of PI3K-delta related disorders” (Incyte Corporation, priority 2013, dated 2018).

Usually IC50 stands for the concentration at which inhibition is half-maximal.

Bounds are passed on as bounds.

The target in this assay is PI3Kδ (p110δ/p85α) (Homo sapiens (Human), UniProt O00329). Put plainly: PI3Kδ Scintillation Proximity Assay (Example A3). It counts as biochemical. The note with it: 20 μM ATP, 20 μM PIP2, 4 nM PI3Kδ, read-out: PI3Kδ SPA IC50. The method, then:
[γ-^33P]ATP (10 mCi/mL) was purchased from PerkinElmer (Waltham, Mass.). […] PI3Kδ (p110δ/p85α) was purchased from Millipore (Bedford, Mass.). ATP, MgCl2, DTT, EDTA, MOPS and CHAPS were purchased from Sigma-Aldrich (St. Louis, Mo.). Wheat Germ Agglutinin (WGA) YSi SPA Scintillation Beads was purchased from GE healthcare life sciences (Piscataway, N.J.).
The kinase reaction was conducted in polystyrene 384-well matrix white plate from Thermo Fisher Scientific in a final volume of 25 μL. Inhibitors were first diluted serially in DMSO and added to the plate wells before the addition of other reaction components. The final concentration of DMSO in the assay was 0.5%. The PI3K assays were carried out at room temperature in 20 mM MOPS, pH 6.7, 10 mM MgCl2, 5 mM DTT and CHAPS 0.03%. Reactions were initiated by the addition of ATP, the final reaction mixture consisted of 20 μM PIP2, 20 μM ATP, 0.2 μCi [γ-^33P] ATP, 4 nM PI3Kδ. […] 25 mM EDTA, 400 μM ATP. The final concentration of SPA beads was 1.0 mg/mL. After the plate sealing, plates were shaken overnight at room temperature and centrifuged at 1800 rpm for 10 minutes, the radioactivity of the product was determined by scintillation counting on Topcount (PerkinElmer). IC50 determination was performed by fitting the curve of percent control activity versus the log of the inhibitor concentration using the GraphPad Prism 3.0 software.

PI3Kδ (p110δ/p85α), sequence (O00329 whole entry): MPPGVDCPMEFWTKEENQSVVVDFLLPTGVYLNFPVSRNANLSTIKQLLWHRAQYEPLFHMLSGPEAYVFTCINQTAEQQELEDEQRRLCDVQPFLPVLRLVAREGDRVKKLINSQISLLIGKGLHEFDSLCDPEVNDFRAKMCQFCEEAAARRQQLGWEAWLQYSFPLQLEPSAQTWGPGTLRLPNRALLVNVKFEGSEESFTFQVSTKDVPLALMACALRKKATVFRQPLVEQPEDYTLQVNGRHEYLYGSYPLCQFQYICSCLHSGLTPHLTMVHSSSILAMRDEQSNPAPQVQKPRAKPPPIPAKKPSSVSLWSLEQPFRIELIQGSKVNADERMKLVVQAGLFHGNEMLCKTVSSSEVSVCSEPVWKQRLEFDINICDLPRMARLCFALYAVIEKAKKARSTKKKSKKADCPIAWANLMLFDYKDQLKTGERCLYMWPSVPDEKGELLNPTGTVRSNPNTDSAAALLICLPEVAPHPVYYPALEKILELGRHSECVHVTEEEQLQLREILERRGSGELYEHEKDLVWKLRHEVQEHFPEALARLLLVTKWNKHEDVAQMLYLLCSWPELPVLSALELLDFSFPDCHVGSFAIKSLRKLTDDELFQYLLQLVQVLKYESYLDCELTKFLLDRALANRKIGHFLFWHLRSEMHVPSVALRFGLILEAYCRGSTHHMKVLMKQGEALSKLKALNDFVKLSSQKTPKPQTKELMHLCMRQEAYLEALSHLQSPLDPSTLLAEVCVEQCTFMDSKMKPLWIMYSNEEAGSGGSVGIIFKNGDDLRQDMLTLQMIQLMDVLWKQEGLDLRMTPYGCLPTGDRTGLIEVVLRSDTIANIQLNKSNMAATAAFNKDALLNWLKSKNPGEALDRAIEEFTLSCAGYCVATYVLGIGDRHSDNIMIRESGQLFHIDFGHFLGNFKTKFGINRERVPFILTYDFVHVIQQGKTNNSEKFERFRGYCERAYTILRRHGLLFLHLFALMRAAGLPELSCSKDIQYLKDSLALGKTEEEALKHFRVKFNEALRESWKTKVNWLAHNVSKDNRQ
PI3Kδ (p110δ/p85α), sequence (P27986 whole entry partner): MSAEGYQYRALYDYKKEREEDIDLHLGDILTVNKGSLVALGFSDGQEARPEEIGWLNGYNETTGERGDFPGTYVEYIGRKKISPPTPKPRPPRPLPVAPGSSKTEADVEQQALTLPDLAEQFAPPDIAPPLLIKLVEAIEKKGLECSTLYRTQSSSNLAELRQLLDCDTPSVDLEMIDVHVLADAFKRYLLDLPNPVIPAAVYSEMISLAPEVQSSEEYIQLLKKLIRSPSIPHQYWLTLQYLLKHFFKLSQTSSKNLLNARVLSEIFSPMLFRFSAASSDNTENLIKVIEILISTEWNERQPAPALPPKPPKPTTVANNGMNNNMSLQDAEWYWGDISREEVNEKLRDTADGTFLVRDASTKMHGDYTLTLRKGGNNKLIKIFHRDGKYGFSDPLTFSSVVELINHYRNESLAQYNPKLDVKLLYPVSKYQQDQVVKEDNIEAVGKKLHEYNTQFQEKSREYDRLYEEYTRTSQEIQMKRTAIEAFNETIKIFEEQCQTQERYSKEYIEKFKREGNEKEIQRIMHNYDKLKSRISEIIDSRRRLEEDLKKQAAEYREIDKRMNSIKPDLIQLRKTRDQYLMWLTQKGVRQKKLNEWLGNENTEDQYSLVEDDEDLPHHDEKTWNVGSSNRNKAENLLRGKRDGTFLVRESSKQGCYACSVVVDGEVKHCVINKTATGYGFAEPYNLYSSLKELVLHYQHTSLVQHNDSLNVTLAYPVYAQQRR

“1-(1-(5-chloro-2-methoxy-4-methyl-3-(pyrimidin-5-yl)phenyl)ethyl)-3-methyl-1H-pyrazolo[3,4-d]pyrimidin-4-amine [Example 168]”: the 50% inhibitory concentration (IC50) is less than 10 nM. The result for `COc1c(C(C)n2nc(C)c3c(N)ncnc32)cc(Cl)c(C)c1C1CN(CC2CC2)C1` (racemic) [Example 4, 1-(1-{5-Chloro-3-[1-(cyclopropylmethyl)azetidin-3-yl]-2-methoxy-4-methylphenyl}ethyl)-3-methyl-1H-pyrazolo[3,4-d]pyrimidin-4-amine bis(trifluoroacetate)] reads less than 10 nM.

Turning to `COc1c(C(C)n2nc(C)c3c(N)ncnc32)cc(Cl)c(C)c1C1CN(C)C1` (racemic) [Example 5, 1-{1-[5-chloro-2-methoxy-4-methyl-3-(1-methylazetidin-3-yl)phenyl]ethyl}-3-methyl-1H-pyrazolo[3,4-d]pyrimidin-4-amine], the IC50 is less than 10 nM. Next, `CCN1CC(c2c(C)c(Cl)cc(C(C)n3nc(C)c4c(N)ncnc43)c2OC)C1` (racemic) [Example 6, 1-{1-[5-Chloro-3-(1-ethylazetidin-3-yl)-2-methoxy-4-methylphenyl]ethyl}-3-methyl-1H-pyrazolo[3,4-d]pyrimidin-4-amine]: less than 10 nM; `COc1c(C(C)n2nc(C)c3c(N)ncnc32)cc(Cl)c(C)c1C1CN(CC(C)C)C1` (racemic) [Example 7, 1-{1-[5-Chloro-3-(1-isobutylazetidin-3-yl)-2-methoxy-4-methylphenyl]ethyl}-3-methyl-1H-pyrazolo[3,4-d]pyrimidin-4-amine]: less than 10 nM; `COCCN1CC(c2c(C)c(Cl)cc(C(C)n3nc(C)c4c(N)ncnc43)c2OC)C1` (racemic) [Example 9, 1-(1-{5-Chloro-2-methoxy-3-[1-(2-methoxyethyl)azetidin-3-yl]-4-methylphenyl}ethyl)-3-methyl-1H-pyrazolo[3,4-d]pyrimidin-4-amine]: less than 10 nM. As to `CNC(=O)N1CC(c2c(C)c(Cl)cc(C(C)n3nc(C)c4c(N)ncnc43)c2OC)C1` (racemic) [Example 10, 3-{3-[1-(4-Amino-3-methyl-1H-pyrazolo[3,4-d]pyrimidin-1-yl)ethyl]-5-chloro-2-methoxy-6-methylphenyl}-N-methylazetidine-1-carboxamide], the IC50 was less than 10 nM.

Regarding `CNC(=O)c1cc(-c2c(C)c(Cl)cc(C(C)n3nc(C)c4c(N)ncnc43)c2OC)ccn1` (racemic) [Example 17, 4-(3-(1-(4-amino-3-methyl-1H-pyrazolo[3,4-c]pyrimidin-1-yl)ethyl)-5-chloro-2-methoxy-6-methylphenyl)-N-methylpicolinamide], the IC50 is less than 10 nM.

As to `COc1c(C(C)n2nc(C)c3c(N)ncnc32)cc(Cl)c(C)c1-c1ccnc(C(=O)NCCO)c1` (racemic) [Example 18, 4-{3-[1-(4-Amino-3-methyl-1H-pyrazolo[3,4-d]pyrimidin-1-yl)ethyl]-5-chloro-2-methoxy-6-methylphenyl}-N-(2-hydroxyethyl)pyridine-2-carboxamide], the half-inhibitory concentration (IC50) was less than 10 nM.

In the case of `COc1c(C(C)n2nc(C)c3c(N)ncnc32)cc(Cl)c(C)c1-c1ccnc(C(=O)N(C)CCO)c1` (racemic) [Example 19, 4-{3-[1-(4-amino-3-methyl-1H-pyrazolo[3,4-d]pyrimidin-1-yl)ethyl]-5-chloro-2-methoxy-6-methylphenyl}-N-(2-hydroxyethyl)-N-methylpyridine-2-carboxamide], the IC50 was less than 10 nM. The result for `CCOc1c(C(C)n2nc(C)c3c(N)ncnc32)cc(Cl)c(C#N)c1-c1cncc(S(C)(=O)=O)c1` (racemic) [Example 43, 4-[1-(4-amino-3-methyl-1H-pyrazolo[3,4-d]pyrimidin-1-yl)ethyl]-6-chloro-3-ethoxy-2-[5-(methylsulfonyl)pyridin-3-yl]benzonitrile] reads less than 10 nM.
